Measured values as given in PubChem BioAssay AID1963981 (Molecular Pharmacology Branch, DTP, NCI, 2024).
Where “and” joins values, the source holds several entries; their conditions need not be identical. Equal entries are not always repeated.

System: 354836-022-R-J1-PDC multicell spheroid viability
Assay: Anticancer human tumor 354836-022-R-J1-PDC patient-derived head and neck squamous cell carcinoma cell line growth inhibition [PI3K]
Details: for viability, T/C: stronger effect = lower value; active = viability on the fitted dose curve at most 10% of control; inactive = the rest
Procedure, shortened: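 Targeted small molecules plus PI3K inhibitors, half-log dose series from Cmax (default top 10 microM), were applied to heterotypic spheroids of cancer cells with HUVEC and MSCs. Viability indicated growth inhibition.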
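Also: spheroids exposed to agents for seven days before the viability read.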

Cn1cnc2c(F)c(Nc3ccc(Br)cc3Cl)c(C(=O)NOCCO)cc21 + CC(Nc1ccc2c(c1)OCCn1cc(N3C(=O)OCC3C(F)F)nc1-2)C(N)=O
2.27 µM: IC50 (curve of first compound, second compound 0.316 µM)
inactive: viability, T/C (second compound 0.00316 µM, first compound 0.00949 µM) 98% | viability, T/C (second compound 0.00316 µM, first compound 0.03 µM) 75.2% | viability, T/C (second compound 0.00316 µM, first compound 0.0949 µM) 92.6% | viability, T/C (second compound 0.00316 µM, first compound 0.3 µM) 78% | viability, T/C (second compound 0.00316 µM, first compound 0.949 µM) 79.2% | viability, T/C (second compound 0.00316 µM, first compound 3 µM) 54.9% | viability, T/C (second compound 0.01 µM, first compound 0.00949 µM) 93.2% | viability, T/C (second compound 0.01 µM, first compound 0.03 µM) 78.7% | viability, T/C (second compound 0.01 µM, first compound 0.0949 µM) 87% | viability, T/C (second compound 0.01 µM, first compound 0.3 µM) 78.7% | viability, T/C (second compound 0.01 µM, first compound 0.949 µM) 75.6% | viability, T/C (second compound 0.01 µM, first compound 3 µM) 56% | viability, T/C (second compound 0.0316 µM, first compound 0.00949 µM) 90% | viability, T/C (second compound 0.0316 µM, first compound 0.03 µM) 97.1% | viability, T/C (second compound 0.0316 µM, first compound 0.0949 µM) 96% | viability, T/C (second compound 0.0316 µM, first compound 0.3 µM) 83.5% | viability, T/C (second compound 0.0316 µM, first compound 0.949 µM) 83.7% | viability, T/C (second compound 0.0316 µM, first compound 3 µM) 65.1% | viability, T/C (second compound 0.1 µM, first compound 0.00949 µM) 88.4% | viability, T/C (second compound 0.1 µM, first compound 0.03 µM) 87.3% | viability, T/C (second compound 0.1 µM, first compound 0.0949 µM) 84.2% | viability, T/C (second compound 0.1 µM, first compound 0.3 µM) 80.5% | viability, T/C (second compound 0.1 µM, first compound 0.949 µM) 81.6% | viability, T/C (second compound 0.1 µM, first compound 3 µM) 55.9% | viability, T/C (second compound 0.316 µM, first compound 0.00949 µM) 80.9% | viability, T/C (second compound 0.316 µM, first compound 0.03 µM) 81% | viability, T/C (second compound 0.316 µM, first compound 0.0949 µM) 67.1% | viability, T/C (second compound 0.316 µM, first compound 0.3 µM) 68% | viability, T/C (second compound 0.316 µM, first compound 0.949 µM) 63.4% | viability, T/C (second compound 0.316 µM, first compound 3 µM) 45.4% | viability, T/C (second compound 1 µM, first compound 0.00949 µM) 72.2% | viability, T/C (second compound 1 µM, first compound 0.03 µM) 57.1% | viability, T/C (second compound 1 µM, first compound 0.0949 µM) 55.4% | viability, T/C (second compound 1 µM, first compound 0.3 µM) 52.8% | viability, T/C (second compound 1 µM, first compound 0.949 µM) 40.8% | viability, T/C (second compound 1 µM, first compound 3 µM) 24.7%
0.252 µM: IC50 (curve of first compound, second compound 1 µM)
> 3 µM: IC50 (curve of first compound, second compound 0.00316 µM) | IC50 (curve of first compound, second compound 0.01 µM) | IC50 (curve of first compound, second compound 0.0316 µM) | IC50 (curve of first compound, second compound 0.1 µM)

CC(C)n1nc(-c2ccc3oc(N)nc3c2)c2c(N)ncnc21
11.4% [middle of 4 runs]: viability, T/C (compound 0.1 µM)
0.00959 µM and 0.012 µM and 0.0118 µM: IC50 (curve of compound)
inactive: viability, T/C (compound 0.000316 µM) 92.8% [middle of 4 runs] | viability, T/C (compound 0.001 µM) 84.9% [middle of 4 runs] | viability, T/C (compound 0.00316 µM) 78.9% [middle of 4 runs] | viability, T/C (compound 0.01 µM) 52% [middle of 4 runs] | viability, T/C (compound 0.0316 µM) 28.9% [middle of 4 runs]
